As usually defined, the IC50 is the concentration that gives 50% inhibition.

Test [1] deals with Human indoleamine 2,3-dioxygenase1 (hIDO1) (Homo sapiens (Human), UniProt P14902). Description: In-vitro IDO1 enzyme assay (conversion of L-tryptophan to KYN). Particulars: read-out: IC50 (IDO1) Enz. In kind it is biochemical. The procedure, abridged: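 His-tagged hIDO1 (10 nM, E. coli-expressed) incubated with 30 μM L-tryptophan, 20 mM ascorbate, 10 μM methylene blue and 100 μg/mL catalase in 50 mM potassium phosphate pH 6.5, 30 min at 37 °C. TCA stop, then 65 °C hydrolysis; KYN measured by HPLC-UV at 360 nm or LC/MS/MS. IC50 by nonlinear regression versus 1% DMSO control.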
Human indoleamine 2,3-dioxygenase1 (hIDO1), sequence (P14902 whole entry): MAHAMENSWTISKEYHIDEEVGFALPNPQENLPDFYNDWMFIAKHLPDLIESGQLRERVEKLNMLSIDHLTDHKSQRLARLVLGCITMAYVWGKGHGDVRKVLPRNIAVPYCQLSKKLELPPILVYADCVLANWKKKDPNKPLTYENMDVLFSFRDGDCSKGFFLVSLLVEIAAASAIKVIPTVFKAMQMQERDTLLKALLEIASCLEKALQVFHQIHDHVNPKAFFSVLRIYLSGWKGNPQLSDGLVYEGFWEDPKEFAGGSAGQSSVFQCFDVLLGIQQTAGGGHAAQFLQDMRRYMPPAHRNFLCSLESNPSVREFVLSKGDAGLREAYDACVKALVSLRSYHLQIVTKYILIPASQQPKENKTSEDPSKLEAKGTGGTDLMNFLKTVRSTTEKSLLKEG

In the next test the target is IDO1 in HeLa cells (Homo sapiens (Human), UniProt P14902). Briefly: HeLa cell based IDO1 assay (IFNγ-induced, KYN in supernatant). The procedure, abridged:
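HeLa cells were induced overnight with IFNγ (50 ng/mL), washed, then exposed to compound (typically 10 μM–1 nM) in HBSS with 80 μM L-tryptophan. Supernatant was TCA-treated at 65 °C for 15 min to convert N-formylkynurenine, and KYN was measured by HPLC-UV at 360 nm. IC50 came from nonlinear regression against a 1% DMSO control.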

The target in test [2] is Human TDO (hTDO)-transfected CHO-K1 cells (Homo sapiens (Human), UniProt P48775). Briefly: CHO-K1 cell based TDO assay. Particulars: hTDO cellular assay. In outline:
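Stably hTDO-expressing CHO-K1 cells were exposed to compounds (typically 31 μM to 10 nM) in HBSS with 80 μM L-tryptophan for 2 h. TCA-treated supernatant was heated at 65° C for 15 min to convert N-formylkynurenine, then kynurenine was quantified by LC/MS/MS. IC50 came from percent inhibition versus DMSO control.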

Human TDO (hTDO)-transfected CHO-K1 cells, sequence (P48775 whole entry): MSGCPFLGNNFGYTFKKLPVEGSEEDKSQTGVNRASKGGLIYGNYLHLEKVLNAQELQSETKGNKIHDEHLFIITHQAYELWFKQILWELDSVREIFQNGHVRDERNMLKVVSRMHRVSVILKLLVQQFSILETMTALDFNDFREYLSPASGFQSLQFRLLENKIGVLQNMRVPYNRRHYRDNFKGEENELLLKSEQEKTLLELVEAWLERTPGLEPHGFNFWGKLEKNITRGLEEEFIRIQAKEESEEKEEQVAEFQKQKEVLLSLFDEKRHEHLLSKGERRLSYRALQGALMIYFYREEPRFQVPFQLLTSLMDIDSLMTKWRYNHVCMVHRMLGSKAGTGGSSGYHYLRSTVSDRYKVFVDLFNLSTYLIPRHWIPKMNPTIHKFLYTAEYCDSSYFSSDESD
IDO1 in HeLa cells, sequence (P14902 whole entry): as the sequence (P14902 whole entry) above

With `CCc1cc(-c2nccc3c(Nc4ccc(F)c(Cl)c4)c(N)oc23)ccn1` [Compound 262, N^3-(3-Chloro-4-fluorophenyl)-7-(2-ethylpyridin-4-yl)furo[2,3-c]pyridine-2,3-diamine], the IC50 in test [1] was below 200 nM; against IDO1 in HeLa cells, below 200 nM; in test [2], 500 to 2000 nM.

As to `Nc1oc2cnccc2c1Nc1cccc(C(F)F)c1` [Compound 65, N^3-(3-(Difluoromethyl)phenyl)furo[2,3-c]pyridine-2,3-diamine], the concentration for half-maximal inhibition (IC50) in test [1] is below 200 nM; against IDO1 in HeLa cells, below 200 nM; in test [2], 500 to 2000 nM.

As for `Cc1cc(Nc2c(N)oc3cnccc23)ccc1Cl` [Compound 70, N^3-(4-Chloro-3-methylphenyl)furo[2,3-c]pyridine-2,3-diamine], the half-inhibitory concentration (IC50) is 200 to 1000 nM in test [1], below 200 nM against IDO1 in HeLa cells and 500 to 2000 nM in test [2].

As for `Nc1sc2c(-c3ccccc3)cccc2c1Nc1ccc(F)c(Cl)c1` [Compound 233, N^3-(3-Chloro-4-fluorophenyl)-7-phenylbenzo[b]thiophene-2,3-diamine], the IC50 is below 200 nM in test [1], below 200 nM against IDO1 in HeLa cells and above 2000 nM in test [2].

As for `CC(C)c1cccc(Nc2c(N)oc3cnccc23)c1` [Compound 43, N^3-(3-Isopropylphenyl)furo[2,3-c]pyridine-2,3-diamine], the figures for the IC50 (in test [1]; against IDO1 in HeLa cells; in test [2]) were 200 to 1000 nM, below 200 nM and above 2000 nM, respectively.

Take `Nc1oc2c(-c3ccncc3)nccc2c1Nc1ccc(F)c(C(F)(F)F)c1` [Compound 192, N^3-(4-Fluoro-3-(trifluoromethyl)phenyl)-7-(pyridin-4-yl)furo[2,3-c]pyridine-2,3-diamine]: the 50% inhibitory concentration (IC50) in test [1] is below 200 nM; against IDO1 in HeLa cells, below 200 nM; in test [2], 500 to 2000 nM.

Consider `CCOC(=O)Nc1oc2c(-c3ccnc(C)c3)nccc2c1N(C(=O)OCC)c1ccc(F)c(Cl)c1` [Compound 269, Ethyl (3-chloro-4-fluorophenyl)(2-((ethoxycarbonyl)amino)-7-(2-methylpyridin-4-yl)furo[2,3-c]pyridin-3-yl)carbamate], for which the half-inhibitory concentration (IC50) was above 1000 nM in test [1], above 1000 nM at IDO1 in HeLa cells and above 2000 nM in test [2].

With `Cc1cc(-c2nccc3c(Nc4ccc(F)c(Cl)c4)c(N)oc23)ccn1` [Compound 158, N^3-(3-chloro-4-fluorophenyl)-7-(2-methylpyridin-4-yl)furo[2,3-c]pyridine-2,3-diamine], the half-maximal inhibitory concentration (IC50) in test [1] was below 200 nM; on IDO1 in HeLa cells, below 200 nM; in test [2], 500 to 2000 nM.

Turning to `CCc1nccc2c(Nc3cccc(C(F)(F)F)c3)c(N)oc12` [Compound 76, 7-Ethyl-N^3-(3-(trifluoromethyl)phenyl)furo[2,3-c]pyridine-2,3-diamine], the IC50 is below 200 nM in test [1], below 200 nM at IDO1 in HeLa cells and 500 to 2000 nM in test [2].

In the case of `Nc1oc2c(-c3cccnc3)nccc2c1Nc1ccc(F)c(Cl)c1` [Compound 94, N^3-(3-chloro-4-fluorophenyl)-7-(pyridin-3-yl)furo[2,3-c]pyridine-2,3-diamine], the IC50 in test [1] was below 200 nM; on IDO1 in HeLa cells it was below 200 nM; in test [2], below 500 nM.

As to `Nc1oc2cnccc2c1Nc1ccccc1Cl` [Compound 4, N^3-(2-Chlorophenyl)furo[2,3-c]pyridine-2,3-diamine], the half-maximal inhibitory concentration (IC50) was above 1000 nM in test [1], below 200 nM on IDO1 in HeLa cells and above 2000 nM in test [2].

On to `Nc1oc2c(N3CCOCC3)nccc2c1Nc1ccc(F)c(Cl)c1` [Compound 245, N^3-(3-Chloro-4-fluorophenyl)-7-morpholinofuro[2,3-c]pyridine-2,3-diamine], for which the results for the 50% inhibitory concentration (IC50) (in test [1]; against IDO1 in HeLa cells; in test [2]) were below 200 nM, below 200 nM and 500 to 2000 nM, respectively.

On to `Nc1oc2c(-c3ccncc3)nc(F)cc2c1Nc1ccc(F)c(F)c1` [Compound 188, N^3-(3,4-Difluorophenyl)-5-fluoro-7-(pyridin-4-yl)furo[2,3-c]pyridine-2,3-diamine], for which the results for the IC50 (in test [1]; at IDO1 in HeLa cells; in test [2]) were below 200 nM, below 200 nM and 500 to 2000 nM, respectively.

On to `Cc1cc(-c2nccc3c(Nc4ccc(F)cc4F)c(N)oc23)ccn1` [Compound 256, N^3-(2,4-Difluorophenyl)-7-(2-methylpyridin-4-yl)furo[2,3-c]pyridine-2,3-diamine], for which the IC50 in test [1] is below 200 nM; against IDO1 in HeLa cells it was below 200 nM; in test [2] it was below 500 nM.

For the compound `CNC(=O)c1cc(-c2nccc3c(Nc4cccc(C(F)(F)F)c4)c(N)oc23)ccn1` [Compound 226, 4-(2-Amino-3-((3-(trifluoromethyl)phenyl)amino)furo[2,3-c]pyridin-7-yl)-N-methylpicolinamide], the IC50 in test [1] was below 200 nM; on IDO1 in HeLa cells, below 200 nM; in test [2] it was above 2000 nM.

As for `Nc1sc2ccccc2c1Nc1cccc(C(F)(F)F)c1` [Compound 119, N^3-(3-(Trifluoromethyl)phenyl)benzo[b]thiophene-2,3-diamine], the concentration for half-maximal inhibition (IC50) in test [1] is below 200 nM; at IDO1 in HeLa cells, below 200 nM; in test [2], above 2000 nM.

As for `Nc1oc2cnccc2c1Nc1ccc(F)cc1Br` [Compound 10, N^3-(2-Bromo-4-fluorophenyl)furo[2,3-c]pyridine-2,3-diamine], the values for the IC50 (in test [1]; against IDO1 in HeLa cells; in test [2]) were above 1000 nM, 200 to 1000 nM and above 2000 nM, respectively.

Turning to `Nc1sc2ccc(Cl)cc2c1Nc1ccc(F)cc1` [Compound 131, 5-Chloro-N^3-(4-fluorophenyl)benzo[b]thiophene-2,3-diamine], the concentration for half-maximal inhibition (IC50) fell in the range of 200 to 1000 nM in test [1], 200 to 1000 nM against IDO1 in HeLa cells and 500 to 2000 nM in test [2].

For the compound `Nc1oc2c(-c3cc(Cl)cc(Cl)c3)nccc2c1Nc1ccc(F)c(Cl)c1` [Compound 258, N^3-(3-Chloro-4-fluorophenyl)-7-(3,5-dichlorophenyl)furo[2,3-c]pyridine-2,3-diamine], the results for the IC50 (in test [1]; on IDO1 in HeLa cells; in test [2]) were below 200 nM, 200 to 1000 nM and above 2000 nM, respectively.

For `COc1cc2c(Nc3ccc(F)c(Cl)c3)c(N)oc2cn1` [Compound 64, N^3-(3-Chloro-4-fluoro-phenyl)-5-methoxy-furo[2,3-c]pyridine-2,3-diamine], the IC50 in test [1] was below 200 nM; on IDO1 in HeLa cells, below 200 nM; in test [2], 500 to 2000 nM.

`Nc1oc2cnccc2c1Nc1ccc(F)c(OC(F)(F)F)c1` [Compound 62, N^3-(4-Fluoro-3-(trifluoromethoxy)phenyl)furo[2,3-c]pyridine-2,3-diamine]: the IC50 in test [1] is 200 to 1000 nM; on IDO1 in HeLa cells, below 200 nM; in test [2] it was above 2000 nM.

`Nc1oc2c(-c3cccc4ccccc34)nccc2c1Nc1ccc(F)c(Cl)c1` [Compound 204, N^3-(3-Chloro-4-fluorophenyl)-7-(naphthalen-1-yl)furo[2,3-c]pyridine-2,3-diamine]: the concentration for half-maximal inhibition (IC50) in test [1] was below 200 nM; on IDO1 in HeLa cells, below 200 nM; in test [2], below 500 nM.

Regarding `COc1cccc(Nc2c(N)sc3ccccc23)c1` [Compound 235, N^3-(3-Methoxyphenyl)benzo[b]thiophene-2,3-diamine], the IC50 in test [1] was 200 to 1000 nM; at IDO1 in HeLa cells, below 200 nM; in test [2], below 500 nM.

For `Nc1oc2cnccc2c1Nc1ccc(F)cc1` [Compound 5, N^3-(4-Fluorophenyl)furo[2,3-c]pyridine-2,3-diamine], the results for the concentration for half-maximal inhibition (IC50) (in test [1]; on IDO1 in HeLa cells; in test [2]) were 200 to 1000 nM, below 200 nM and 500 to 2000 nM, respectively.

The values above are taken from patent US10294212B2 (CURADEV PHARMA PRIVATE LTD., priority 2013, dated 2019).
